Source: the NIST ThermoML archive (doi:10.1021/je101361u)

Details: 101.33 kPa, Liquid

COCCOC [1,2-dimethoxyethane]
Details	mass density [kg/m3]
283.15 K	877.64
284.15 K	876.56
285.15 K	875.48
286.15 K	874.4
287.15 K	873.31
288.15 K	872.23
289.15 K	871.14
290.15 K	870.05
291.15 K	868.96
292.15 K	867.87
293.15 K	866.79
294.15 K	865.7
295.15 K	864.61
296.15 K	863.51
297.15 K	862.42
298.15 K	861.32
299.15 K	860.22
300.15 K	859.12
301.15 K	858.01
302.15 K	856.91
303.15 K	855.8
304.15 K	854.69
305.15 K	853.58
306.15 K	852.46
307.15 K	851.35
308.15 K	850.24
309.15 K	849.13
310.15 K	848.02
311.15 K	846.9
312.15 K	845.79
313.15 K	844.67
314.15 K	843.55
315.15 K	842.42
316.15 K	841.29
317.15 K	840.17
318.15 K	839.04
319.15 K	837.91
320.15 K	836.77
321.15 K	835.64
322.15 K	834.5
323.15 K	833.36
324.15 K	832.22
325.15 K	831.08
326.15 K	829.93
327.15 K	828.78
328.15 K	827.63
329.15 K	826.48
330.15 K	825.33
331.15 K	824.17
332.15 K	823.02
333.15 K	821.86

CCOCCOCCOCC [diethylene glycol diethyl ether]
Details	mass density [kg/m3]
283.15 K	916.36
284.15 K	915.39
285.15 K	914.43
286.15 K	913.46
287.15 K	912.5
288.15 K	911.53
289.15 K	910.57
290.15 K	909.6
291.15 K	908.63
292.15 K	907.67
293.15 K	906.71
294.15 K	905.75
295.15 K	904.78
296.15 K	903.81
297.15 K	902.85
298.15 K	901.88
299.15 K	900.92
300.15 K	899.95
301.15 K	898.98
302.15 K	898.02
303.15 K	897.05
304.15 K	896.08
305.15 K	895.12
306.15 K	894.15
307.15 K	893.18
308.15 K	892.21
309.15 K	891.25
310.15 K	890.28
311.15 K	889.31
312.15 K	888.34
313.15 K	887.37
314.15 K	886.4
315.15 K	885.43
316.15 K	884.46
317.15 K	883.48
318.15 K	882.51
319.15 K	881.54
320.15 K	880.57
321.15 K	879.6
322.15 K	878.63
323.15 K	877.66
324.15 K	876.7
325.15 K	875.73
326.15 K	874.75
327.15 K	873.78
328.15 K	872.81
329.15 K	871.84
330.15 K	870.87
331.15 K	869.89
332.15 K	868.92
333.15 K	867.94
